Consider seven molecules from ChEMBL document CHEMBL1201862, “PubChem BioAssay data set” (2004).

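These data come from cells grown in 96-well plates and exposed to compound for 48 hours at five concentrations. GI50: concentration for 50% inhibition of growth.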 Active and inactive are the calls of the source. No stated cut-off is given here; in the data, active = GI50 up to about 1.1 µM and inactive = higher.

Among the test systems are CCRF-CEM; HCC 2998; Hs-578T; MDA-MB-231; MDA-N; MOLT-4; NCI-H226; NCI-H460; NCI-H522; OVCAR-3; OVCAR-5; RXF 393; SF-295; SF-539; SK-MEL-2; SK-OV-3; SN12C; SW-620; T47D; TK-10.
Assay in all cases: inhibition of tumour cell growth, NCI panel, 48 h

`O=C1c2cccnc2-c2nccc3c2c1nc1cc(Br)ccc13`: the GI50 with CCRF-CEM is 0.0989 µM (active); with HCC 2998, 0.406 µM (active); in the assay on Hs-578T, 0.204 µM (active); in the assay with MDA-MB-231, 0.103 µM (active); with MDA-N it was 0.225 µM (active); with MOLT-4, 0.0955 µM (active). In addition, the GI50 with NCI-H226 was 0.216 µM (active); with NCI-H460, 0.138 µM (active); in the assay on NCI-H522, 0.115 µM (active); in the assay with OVCAR-3, 0.124 µM (active); in the assay with OVCAR-5, 0.24 µM (active); with RXF 393, 0.0946 µM (active). Moreover, the GI50 in the assay with SF-295 was 0.227 µM (active); in the assay with SF-539 it was 0.279 µM (active); in the assay on SK-MEL-2 it was 0.165 µM (active); in the assay on SK-OV-3, 0.239 µM (active); in the assay with SN12C, 0.101 µM (active); in the assay with SW-620, < 0.0264 µM (active). For the same molecule, the GI50 in the assay with T47D is 0.0883 µM (active); in the assay on TK-10, 0.979 µM (active).
For `COC(=O)C1C2CC3C1C3C2C(=O)OC` (stereo not given), the GI50 with CCRF-CEM, in the assay on HCC 2998, in the assay on Hs-578T, with MDA-MB-231, with MDA-N and with MOLT-4 was > 100 µM (inactive) each time. Also, the GI50 in the assay on NCI-H226, with NCI-H460, with NCI-H522, in the assay on OVCAR-3, in the assay on OVCAR-5 and in the assay on RXF 393 was > 100 µM (inactive) throughout. For the same molecule, the GI50 in the assay with SF-295, in the assay with SF-539, in the assay with SK-MEL-2, in the assay on SK-OV-3, in the assay on SN12C and in the assay on SW-620 was > 100 µM (inactive) each time. Also, the GI50 with T47D and with TK-10 was > 100 µM (inactive) in each case.
Consider `Cc1cn(C2CC(N/C(=N/C#N)NCC3OC(n4cnc5c(N)ncnc54)CC3O)C(CO)O2)c(=O)[nH]c1=O` (stereo not given), for which the GI50 in the assay with CCRF-CEM, in the assay on HCC 2998, in the assay with Hs-578T, with MDA-MB-231, in the assay with MDA-N and with MOLT-4 was > 100 µM (inactive) in each case. The GI50 with NCI-H226, in the assay with NCI-H460, with NCI-H522, in the assay on OVCAR-3, in the assay with OVCAR-5 and in the assay with RXF 393 was > 100 µM (inactive) throughout. Besides, the GI50 in the assay on SF-295, in the assay on SF-539, with SK-MEL-2, with SK-OV-3, with SN12C and with SW-620 was > 100 µM (inactive) in each case. The GI50 with T47D and with TK-10 was > 100 µM (inactive) in each case.
As to `CCSCC(=O)N1CCc2c([nH]c3ccccc23)C1=O`, the GI50 in the assay with CCRF-CEM was > 100 µM (inactive); in the assay with HCC 2998 it was > 100 µM (inactive); with Hs-578T, 23.2 µM (inactive); with MDA-MB-231 it was > 100 µM (inactive); with MDA-N, > 100 µM (inactive); in the assay on MOLT-4, > 100 µM (inactive). The GI50 with NCI-H226 was > 100 µM (inactive); with NCI-H460 it was > 100 µM (inactive); with NCI-H522 it was 64.4 µM (inactive); with OVCAR-3, > 100 µM (inactive); in the assay on OVCAR-5 it was 91 µM (inactive); with RXF 393 it was > 100 µM (inactive). Moreover, the GI50 in the assay on SF-295, with SF-539, with SK-MEL-2, in the assay on SK-OV-3, in the assay with SN12C and in the assay on SW-620 was > 100 µM (inactive) each time. Also, the GI50 with T47D and in the assay on TK-10 was > 100 µM (inactive) each time.
As to `c1ccc2c(c1)Oc1cccc3cccc-2c13`, the GI50 in the assay with CCRF-CEM is > 100 µM (inactive); in the assay on HCC 2998, > 100 µM (inactive); with Hs-578T, > 100 µM (inactive); in the assay on MDA-MB-231 it was > 100 µM (inactive); in the assay with MDA-N, > 100 µM (inactive); in the assay on MOLT-4 it was 98.2 µM (inactive). The GI50 was > 100 µM (inactive) with NCI-H226; > 100 µM (inactive) in the assay on NCI-H460; > 100 µM (inactive) in the assay with NCI-H522; 42.3 µM (inactive) with OVCAR-3; > 100 µM (inactive) in the assay on OVCAR-5; > 100 µM (inactive) in the assay with RXF 393. Moreover, the GI50 in the assay with SF-295, in the assay with SF-539, in the assay with SK-MEL-2, in the assay with SK-OV-3, in the assay on SN12C and in the assay on SW-620 was > 100 µM (inactive) in each case. Further, the GI50 with T47D and with TK-10 was > 100 µM (inactive) throughout.
`Cc1nc(SCC(N)=O)c2sc(=S)n(-c3ccccc3)c2n1`: the GI50 with CCRF-CEM, in the assay with HCC 2998, in the assay on Hs-578T, with MDA-MB-231, in the assay on MDA-N and with MOLT-4 was > 10 µM (inactive) throughout. For the same molecule, the GI50 in the assay with NCI-H226, with NCI-H460, in the assay on NCI-H522, with OVCAR-3, with OVCAR-5 and in the assay on RXF 393 was > 10 µM (inactive) throughout. The GI50 in the assay on SF-295, in the assay on SF-539, with SK-MEL-2, in the assay with SK-OV-3, in the assay on SN12C and in the assay with SW-620 was > 10 µM (inactive) each time. For the same molecule, the GI50 in the assay on T47D and in the assay on TK-10 was > 10 µM (inactive) throughout.
`COc1ccc(N2C(=O)C3c4[nH]c5ccc(OCc6ccccc6)cc5c4C4CCC(C(C)C)CC4C3C2=O)cc1` (stereo not given): the GI50 is 12.6 µM (inactive) in the assay with CCRF-CEM; > 100 µM (inactive) with HCC 2998; 2.29 µM (inactive) in the assay with Hs-578T; 10.5 µM (inactive) in the assay with MDA-MB-231; > 100 µM (inactive) in the assay with MDA-N; 18.2 µM (inactive) in the assay with MOLT-4. Besides, the GI50 in the assay on NCI-H226 was 14.2 µM (inactive); in the assay with NCI-H460, 13.9 µM (inactive); in the assay with NCI-H522 it was 12.3 µM (inactive); with OVCAR-3, > 58.5 µM (inactive); with OVCAR-5, > 40 µM (inactive); with RXF 393 it was 13.4 µM (inactive). Moreover, the GI50 with SF-295 was 6.4 µM (inactive); with SF-539, 6.03 µM (inactive); in the assay with SK-MEL-2, 15.2 µM (inactive); in the assay on SK-OV-3, 17.7 µM (inactive); in the assay on SN12C it was > 100 µM (inactive); in the assay with SW-620, > 100 µM (inactive). Further, the GI50 in the assay on T47D was 33.2 µM (inactive); with TK-10 it was > 30.3 µM (inactive).
